Measured values as given in patent US10300155B2, “Alpha-synuclein ligands” (Washington University, priority 2015, dated 2019).
Values joined by “and” are separate entries in the source; they are usually repeats but may differ in a detail not shown here. Identical values can stand only once. Like-named read-outs stand apart in the source and are kept apart here.

Biological target: T1, α-synuclein fibrils (Homo sapiens, UniProt P37840)
T1 construct: made in house; host or cells: E. coli BL21(DE3)RIL
Test: ThT competitive assay for α-synuclein fibrils (Table 1)
Type: binding
Conditions: for EC50: α-synuclein fibrils
Procedure: Upon binding to amyloid fibrils, a peak at approximately 440 nm becomes dominant with the fluorescent emission maximum shifted to 480 nm. This is accompanied by a strong enhancement of the fluorescence.
α-Synuclein recombinant protein was produced in E. coli. […] Freshly transformed BL21 colonies were inoculated into 2 L baffled flasks containing 250 mL sterilized TB (1.2% bactotryptone, 2.4% yeast extract, 0.4% glycerol, 0.17 M KH2PO4, 0.72 M K2HPO4) with 50 μg/ml ampicillin, and incubated overnight at 37° C. with shaking.
To determine the concentration of fibrils, the reaction mixture (100 μL) was centrifuged at 18,000×g for 10 minutes to separate fibrils from monomer. The α-synuclein monomer and other soluble proteins in the supernatant were removed, and the fibril pellet was resuspended in 100 μL solution of Tris-HCl (20 mM) and NaCl (100 mM). This fibril suspension was used in a bicinchoninic acid (BCA) protein assay along with a bovine serum albumin (BSA) standard curve to determine the concentration of fibrils in the 72 hour fibril reaction mixture.
To prepare the fibrils for performing binding assays, the fibril reaction mixture prepared above was centrifuged at 18,000×g for 10 minutes.
Once the ThT-α-synuclein saturation binding curve and dissociation constant (Kd) were determined the competitive assay for determining the binding affinity of various test compounds was conducted. […] The mixture was incubated at room temperature for 60 minutes on the shaking plate. The fluorescent intensity for each cell was measured by the fluorescence reader at λex and λem. The Ki value for each compound was calculated by the corresponding inhibition curve.
The Ki values were derived from the EC50 values using the Cheng-Prusoff equation: Ki=EC50/(1+[radioligand]/Kd). See FIGS. 17.1-31.2 for the inhibition curves for each compound in the ThioT competitive binding assay.

[1] = average, read-out: Ki (nM) α-syn (avg)
[2] = individual determinations, read-out: Ki (nM) α-syn
[3] = average, read-out: EC50 (nM) EC50 (avg)
[4] = individual determinations, read-out: EC50 (nM) EC50

SMILES | Ki [1] | Ki [2] | EC50 [3] | EC50 [4]
Fc1ccc2nc(/C=C/c3cnccn3)ccc2c1 [TZ-36-22] | 109 nM | 109 nM | 286 nM | 286 nM
COc1ccc2nc(/C=C/c3ccco3)ccc2c1 [TZ-36-52] | 316 nM | 316 nM | 827 nM | 827 nM
COc1ccc(C(=O)C2CCN(C(=O)c3ccc(/C=C/c4ccncc4)cc3)CC2)cc1 [TZ-20-51] | 184 nM | 184 nM | – | –
COc1ccc2nc(/C=C/c3cccs3)ccc2c1 [TZ-36-50] | 403 nM | 403 nM | 1050 nM | 1050 nM
O=C(OCCF)c1ccc(/C=C/c2ccncc2)cc1 [TZ-20-63] | 96 nM | 96 nM | – | –
COc1ccc2nc(/C=C/c3ccnc(Cl)c3)ccc2c1 [TZ-36-42] | 54 nM | 52 nM and 56 nM | 140 nM | 136 nM and 145 nM
COc1ccc(/C=C/c2cncs2)cc1 [TZ-34-35] | 323 nM | 313 nM and 333 nM | 845 nM | 819 nM and 871 nM
C(=C\c1ccccc1)/CN1c2ccccc2Oc2ccccc21 [TZ-19-136] | 3060 nM | 3060 nM | – | –
FC(F)(F)c1ccc(/C=C/c2ccncc2)cc1 [TZ-20-75] | 36.8 nM | 36.8 nM | – | –
C(=C\c1ccccc1)/CN1c2ccccc2Sc2ccccc21 [TZ-19-126] | 3880 nM | 3880 nM | – | –
COc1ccc2nc(/C=C/c3cccnc3C)ccc2c1 [TZ-36-44] | 289 nM | 289 nM | 755 nM | 755 nM
O=C(Nc1ccc(Br)cc1)c1ccc(/C=C/c2ccncc2)cc1 [TZ-23-52] | 10.4 nM | – | – | –
COC(=O)C(Cc1ccc(O)cc1)NC(=O)c1ccc(/C=C/c2ccncc2)cc1 (stereo not shown) [TZ-20-77] | 523 nM | 523 nM | – | –
COc1ccc(NC(=O)c2ccc(/C=C/c3ccncc3)cc2)cc1 [TZ-20-83] | – | 19.1 nM | – | –
CN(C)c1ccc(/C=C/CN2c3ccccc3Oc3ccccc32)cc1 [TZ-19-138] | 3090 nM | 3090 nM | – | –
COc1ccc(/C=C/c2ccncn2)cc1 [TZ-22-19-1] | 154 nM | 154 nM | – | –
COc1ccccc1NC(=O)c1ccc(/C=C/c2ccncc2)cc1 [TZ-20-81] | 150 nM | 150 nM | – | –
COc1ccc(/C=C/c2ccc(C(=O)NCCF)s2)cc1 [TZ-34-94] | 160 nM | 223 nM and 61 nM and 197 nM | 419 nM | 583 nM and 160 nM and 514 nM
COc1cccc2ccc(/C=C/c3ccccc3)nc12 [TZ-19-148] | 614 nM | 614 nM | – | –
COc1ccc2ccc(/C=C/c3ccccc3)nc2c1 [TZ-19-146] | 666 nM | 666 nM | – | –
COc1ccc2nc(/C=C/c3cnccn3)ccc2c1 [TZ-23-12] | 36.4 nM | 36.4 nM | – | –
COc1ccc(/C=C/c2cc(C)cs2)cc1 [TZ-34-38] | 252 nM | 387 nM and 114 nM and 256 nM | 661 nM | 1010 nM and 299 nM and 671 nM
COc1ccc2c(c1)NC(=O)/C(=C/C=C/c1ccc([N+](=O)[O-])cc1)S2 [TZ-19-124] | 254 nM | 254 nM | – | –
COc1ccc(/C=C/c2ccc(-c3cccs3)s2)cc1 [TZ-34-40] | 450 nM | 500 nM and 400 nM | 1180 nM | 1310 nM and 1050 nM
COc1cc(/C=C/c2cnccn2)nc2ccccc12 [TZ-23-20] | 3030 nM | 3030 nM | – | –
Fc1ccc(-c2ccc(-c3nc4cc(Br)ccc4o3)cc2C(F)(F)F)cn1 [TZ-31-108] | 1540 nM | 1540 nM | 4030 nM | 4030 nM

SMILES | Ki [1] | Ki [2] | EC50 [3] | EC50 [4]
Brc1ccc(/C=C/c2cnccn2)cc1 [TZ-22-47-1] | 76.7 nM | 76.7 nM | – | –
Brc1ccc(/C=C/c2cccs2)cc1 [TZ-34-55] | 198 nM | 198 nM | 519 nM | 519 nM
COc1ccc(/C=C/c2ccoc2)cc1 [TZ-34-27] | 551 nM | 1140 nM and 201 nM and 310 nM | 1440 nM | 2990 nM and 527 nM and 812 nM
CNC(=O)c1ccc(/C=C/c2ccncc2)cc1 [TZ-20-69] | 85.6 nM | 85.6 nM | – | –
Ic1ccc(/C=C/c2ccoc2)cc1 [TZ-34-86] | 134 nM | 117 nM and 152 nM | 352 nM | 306 nM and 398 nM
COc1ccc(C(=O)N2CCN(C(=O)c3ccc(/C=C/c4ccncc4)cc3)CC2)cc1 [TZ-20-45] | 181 nM | 181 nM | – | –
COc1ccc(/C=C/c2ccc(-c3nccs3)s2)cc1 [TZ-37-96] | 98.5 nM | 102 nM and 95 nM | – | –
COc1ccc2nc(/C=C/c3ccccn3)ccc2c1 [TZ-36-34] | 193 nM | 193 nM | 504 nM | 504 nM
Fc1ccc(/C=C/c2ccncc2)cc1 [TZ-20-73] | 432 nM | 432 nM | – | –
O=C(Nc1ccc(OCCF)cc1)c1ccc(/C=C/c2ccncc2)cc1 [TZ-23-88] | 32.1 nM | 24.3 nM and 40 nM | 83.8 nM | 63.5 nM and 104 nM
COc1cccc(/C=C/c2cnccn2)c1 [TZ-22-49-1] | 117 nM | 117 nM | – | –
Brc1ccc(/C=C/c2ccsc2)cc1 [TZ-34-58] | 319 nM | 319 nM | 834 nM | 834 nM
COc1ccc(C2CCN(C(=O)COC(=O)c3ccc(C(C)(C)C)cc3)CC2)cc1 [TZ-20-23] | 109 nM | 109 nM | – | –
COc1ccc2nc(/C=C/c3ccsc3)ccc2c1 [TZ-36-30] | 122 nM | 122 nM | 320 nM | 320 nM
CC(C)OC(=O)c1ccc(/C=C/c2ccncc2)cc1 [TZ-20-65] | 75.6 nM | 75.6 nM | – | –
COC(=O)c1ccc(/C=C/C=C/c2ccncc2)cc1 [TZ-20-111] | – | 56 nM | – | –
CNc1ccc(/C=C/c2ccncc2)cc1 [TZ-20-97] | – | 33.9 nM | – | –
CN(C)c1ccc(/C=C/C=C/c2cccs2)cc1 [TZ-34-97] | 69 nM | 69 nM | 180 nM | 180 nM
O=C(NCCF)c1ccc(/C=C/c2ccncc2)cc1 [TZ-20-79] | 115 nM | 115 nM | – | –
COc1ccc2nc(/C=C/c3ccncc3Br)ccc2c1 [TZ-36-46] | 168 nM | 140 nM and 195 nM | 437 nM | 365 nM and 509 nM
Ic1ccc(/C=C/c2cccs2)cc1 [TZ-34-63] | 80 nM | 80 nM | 208 nM | 208 nM
COc1ccc(C2CCN(C(=O)c3ccc(/C=C/c4ccncc4)cc3)CC2)cc1 [TZ-20-39] | 2460 nM | 2460 nM | – | –
COc1ccc(C(=O)C2CCN(C(=O)COC(=O)c3ccc(C(C)(C)C)cc3)CC2)cc1 [TZ-20-11] | 5090 nM | 5090 nM | – | –
COc1ccc(/C=C/c2cnccn2)cc1 [TZ-22-1-2] | 31.9 nM | 31.9 nM | – | –
COc1ccc2nc(/C=C/c3ccncc3)ccc2c1 [TZ-19-158] | 29.1 nM | 29.1 nM | – | –
COc1ccc2nc(/C=C/c3ccncc3Cl)ccc2c1 [TZ-36-48] | 414 nM | 414 nM | 1080 nM | 1080 nM
